Measured values published in patent publication US5336768A, “Antibacterial cephalosporin compounds” (Hoffmann-La Roche Inc., priority 1988, dated 1994).
Where a name gives a salt, the structure may show the parent alone. Read-outs that look alike come from different tables or passages of the source.

Experiments:
Test in all cases: In vitro MIC, Agar Dilution Method
Type in all cases: cell-based
Cit. freundii BS-16 = conditions: Citrobacter freundii, BS16
Excerpt: (§1) The in vitro activity of the compounds of the present invention as measured by the Minimum Inhibitory Concentration (MIC) in micrograms/ml utilizing the Agar Dilution Method against a variety of Gram-positive and Gram-negative organisms, is as follows: […]

Staph. aureus Smith = conditions: Staphylococcus aureus, read-out: In Vitro MIC
Excerpt: as §1

[1] = system: Ps. aeruginosa ATCC 27853; conditions: Pseudomonas aeruginosa
Excerpt: as §1

Prot. Vulqaris 1028 BC = conditions: read-out: In Vitro MIC
Excerpt: as §1

Ps. aeruginosa 5712 = conditions: Pseudomonas aeruginosa
Excerpt: as §1

Str. pyogenes 4 = conditions: Streptococcus pyogenes
Excerpt: as §1

Staph. aureus 67 = conditions: Staphylococcus aureus
Excerpt: as §1

Staph. aureus ATCC 29213 = conditions: Staphylococcus aureus
Excerpt: as §1

Staph. aureus 10598 = system: Staph. aureus 10598
Excerpt: as §1

Staph. aureus 753 = system: Staph. aureus 753
Excerpt: as §1

Ps. aeruginosa 8780 = conditions: Pseudomonas aeruginosa
Excerpt: as §1

Ps. aeruginosa 18SH = conditions: Pseudomonas aeruginosa, read-out: In Vitro MIC
Excerpt: as §1

Ser. marcescens SM = conditions: Serratia marcescens, read-out: In Vitro MIC
Excerpt: as §1

Str. faecalis ATCC 29212 = conditions: Enterococcus faecalis, ATCC29212
Excerpt: as §1

Enter. cloacae P99 = conditions: Enterobacter cloacae
Excerpt: as §1

Enter. cloacae 5699 = conditions: Enterobacter cloacae
Excerpt: as §1

E. coli TEM-1 = conditions: Escherichia coli, TEM1, read-out: In Vitro MIC
Excerpt: as §1

Ps. aeruginosa 765 = system: Ps. aeruginosa 765
Excerpt: as §1

Str. pneumoniae 6301 = conditions: Streptococcus pneumoniae
Excerpt: as §1

K. pneumoniae A = conditions: Klebsiella pneumoniae, read-out: In Vitro MIC
Excerpt: as §1

E. coli 257 = conditions: Escherichia coli
Excerpt: as §1

Ser. marcescens 1071 = conditions: Serratia marcescens
Excerpt: as §1

E. coli ATCC 25922 = conditions: Escherichia coli, ATCC25922
Excerpt: as §1

Prot. mirabilis 90 = system: Prot. mirabilis 90
Excerpt: as §1

Prot. vulgaris ATCC 6380 = conditions: Proteus vulgaris
Excerpt: as §1

**Q.** How did the MIC (Cit. freundii BS-16) turn out when CCn1cc(C(=O)O)c(=O)c2cc(F)c(N3CCN(C(=O)OCC4=C(C(=O)O)N5C(=O)[C@@H](NC(=O)/C(=N\OC)c6csc(N)n6)[C@H]5SC4)CC3)cc21 [Compound A, [6R-[6α,7β(Z)]]-7-[[(2-amino-4-thiazolyl) (methoxyimino)acetyl]amino]-3-[[[[4-(3-carboxy-1-ethyl-6-fluoro-1,4-dihydro-4-oxo-7-quinolinyl) -1-piperazinyl]carbonyl]oxy]methyl]-8-oxo-5-thia-1-azabicyclo[4.2.0]oct-2-ene-2-carboxylic acid sodium salt] was run?
**A.** 0.5 µg/mL

**Q.** What about the MIC (Staph. aureus Smith; Staph. aureus Smith, Agar Dilution Method) of the same molecule?
**A.** 1 µg/mL

**Q.** What about the MIC ([1]; ATCC27853, Ps. aeruginosa ATCC 27853, Agar Dilution Method, read-out: In Vitro MIC) of the same molecule?
**A.** 8 µg/mL

**Q.** And the MIC (Prot. Vulqaris 1028 BC; Prot. Vulqaris 1028 BC, Agar Dilution Method)?
**A.** 0.125 µg/mL

**Q.** And the MIC (Ps. aeruginosa 5712)?
**A.** 16 µg/mL

**Q.** What about the MIC (Str. pyogenes 4) of the same molecule?
**A.** 0.0157 µg/mL

**Q.** And the MIC (Staph. aureus 67)?
**A.** 4 µg/mL

**Q.** And the MIC (Staph. aureus ATCC 29213; ATCC29213, Staph. aureus ATCC 29213, Agar Dilution Method, read-out: In Vitro MIC)?
**A.** 2 µg/mL

**Q.** And the MIC (Staph. aureus 10598; Staphylococcus aureus, Staph. aureus 10598, Agar Dilution Method, read-out: In Vitro MIC)?
**A.** 2 µg/mL

**Q.** What about the MIC (Staph. aureus 753; Staphylococcus aureus, Staph. aureus 753, Agar Dilution Method, read-out: In Vitro MIC) of the same molecule?
**A.** 4 µg/mL

**Q.** What about the MIC (Ps. aeruginosa 8780) of the same molecule?
**A.** 4 µg/mL

**Q.** And the MIC (Ps. aeruginosa 18SH; Ps. aeruginosa 18SH, Agar Dilution Method)?
**A.** 4 µg/mL

**Q.** And the MIC (Ser. marcescens SM)?
**A.** 0.25 µg/mL

**Q.** What about the MIC (Str. faecalis ATCC 29212) of the same molecule?
**A.** 0.5 µg/mL

**Q.** What about the MIC (Enter. cloacae P99) of the same molecule?
**A.** 0.5 µg/mL

**Q.** And the MIC (Enter. cloacae 5699)?
**A.** 0.5 µg/mL

**Q.** And the MIC (E. coli TEM-1)?
**A.** 0.25 µg/mL

**Q.** And the MIC (Ps. aeruginosa 765; Pseudomonas aeruginosa, Ps. aeruginosa 765, Agar Dilution Method, read-out: In Vitro MIC)?
**A.** 8 µg/mL

**Q.** What about the MIC (Str. pneumoniae 6301) of the same molecule?
**A.** 0.0157 µg/mL

**Q.** And the MIC (K. pneumoniae A; K. pneumoniae A, Agar Dilution Method)?
**A.** 0.5 µg/mL

**Q.** What about the MIC (E. coli 257) of the same molecule?
**A.** 0.25 µg/mL

**Q.** What about the MIC (Ser. marcescens 1071) of the same molecule?
**A.** 0.5 µg/mL

**Q.** And the MIC (E. coli ATCC 25922)?
**A.** 0.25 µg/mL

**Q.** What about the MIC (Prot. mirabilis 90; Proteus mirabilis, 90, read-out: In Vitro MIC) of the same molecule?
**A.** 0.25 µg/mL

**Q.** What about the MIC (Prot. vulgaris ATCC 6380; ATCC6380, Prot. vulgaris ATCC 6380, Agar Dilution Method, read-out: In Vitro MIC) of the same molecule?
**A.** 0.0625 µg/mL

**Q.** How did the MIC (Cit. freundii BS-16) turn out when CO/N=C(\C(=O)N[C@@H]1C(=O)N2C(C(=O)O)=C(COC(=O)N3CCN(c4cc5c(cc4F)c(=O)c(C(=O)O)cn5C4CC4)CC3)CS[C@H]12)c1csc(N)n1 [Compound B, [6R-[6α,7β(Z)]]-7-[[(2-amino-4-thiazolyl) (methoxyimino)acetyl]amino]-3-[[[[4-(3-carboxy-1-cyclopropyl-6-fluoro-1,4-dihydro-4-oxo-7-quinolinyl)-1-piperazinyl]carbonyl]oxy]methyl]-8-oxo-5-thia-1-azabicyclo[4.2.0]oct-2-ene-2-carboxylic acid sodium salt] was run?
**A.** 0.125 µg/mL

**Q.** What about the MIC (Staph. aureus Smith) of the same molecule?
**A.** 0.5 µg/mL

**Q.** And the MIC ([1]; ATCC27853, read-out: In Vitro MIC)?
**A.** 1 µg/mL

**Q.** And the MIC (Prot. Vulqaris 1028 BC)?
**A.** 0.0625 µg/mL

**Q.** What about the MIC (Ps. aeruginosa 5712) of the same molecule?
**A.** 4 µg/mL

**Q.** What about the MIC (Str. pyogenes 4) of the same molecule?
**A.** 0.0157 µg/mL

**Q.** And the MIC (Staph. aureus 67)?
**A.** 2 µg/mL

**Q.** And the MIC (Staph. aureus ATCC 29213; ATCC29213, read-out: In Vitro MIC)?
**A.** 1 µg/mL

**Q.** And the MIC (Staph. aureus 10598; Staphylococcus aureus, 10598, read-out: In Vitro MIC)?
**A.** 1 µg/mL

**Q.** What about the MIC (Staph. aureus 753; Staphylococcus aureus, 753, read-out: In Vitro MIC) of the same molecule?
**A.** 1 µg/mL

**Q.** And the MIC (Ps. aeruginosa 8780)?
**A.** 2 µg/mL

**Q.** And the MIC (Ps. aeruginosa 18SH; 18SH)?
**A.** 1 µg/mL

**Q.** What about the MIC (Ser. marcescens SM; Ser. marcescens SM, Agar Dilution Method) of the same molecule?
**A.** 0.125 µg/mL

**Q.** What about the MIC (Str. faecalis ATCC 29212) of the same molecule?
**A.** 0.25 µg/mL

**Q.** And the MIC (Enter. cloacae P99)?
**A.** 0.0313 µg/mL

**Q.** And the MIC (Enter. cloacae 5699)?
**A.** 0.125 µg/mL

**Q.** What about the MIC (E. coli TEM-1) of the same molecule?
**A.** 0.0625 µg/mL

**Q.** And the MIC (Ps. aeruginosa 765; Pseudomonas aeruginosa, 765, read-out: In Vitro MIC)?
**A.** 1 µg/mL

**Q.** And the MIC (Str. pneumoniae 6301)?
**A.** 0.0157 µg/mL

**Q.** And the MIC (K. pneumoniae A)?
**A.** 0.0625 µg/mL

**Q.** And the MIC (E. coli 257)?
**A.** 0.0625 µg/mL

**Q.** What about the MIC (Ser. marcescens 1071) of the same molecule?
**A.** 0.25 µg/mL

**Q.** And the MIC (E. coli ATCC 25922)?
**A.** 0.0625 µg/mL

**Q.** What about the MIC (Prot. mirabilis 90; Proteus mirabilis, Prot. mirabilis 90, Agar Dilution Method, read-out: In Vitro MIC) of the same molecule?
**A.** 0.25 µg/mL

**Q.** And the MIC (Prot. vulgaris ATCC 6380; ATCC6380, read-out: In Vitro MIC)?
**A.** 0.0625 µg/mL
